One test relates to A549 lung cancer cells. Briefly: MTT assay (cell viability; CI and SI derived from it). Format: cell-based, human. The following applies: for IC50: A549, max tested 100 μM, combinations: Ru-PIP gradient with fixed Olaparib; for Selectivity Index (SI) = IC50 normal cells/IC50 cancer cells: MRC5 vs A549. On the procedure: Cells were seeded in 96-well plates at 5 × 10^3 cells/well and allowed to adhere overnight. […] For drug combination treatment, cells were treated with concentration gradient of Ru-PIP (3.125–100 µM) in combination with Olaparib (5 or 10 µM). After 24, 48 or 72 h incubation, 0.5 mg/ml thiazolyl blue tetrazolium bromide (MTT) dissolved in 1X PBS was added to each well and cells were incubated at 37 °C for 4 h. 100 µl of DMSO was added to each well to solubilize the reduced purple formazan crystals formed. Next, the absorbance at 570 nm (630 nm as reference wavelength) was measured using a microplate reader. The half maximal inhibitory concentration (IC50) for each compound was determined using GraphPad Prism software. Additionally, selectivity indices (SI) were determined by the ratio between IC50 of normal cells and that of cancer cells.
Based on the data obtained from MTT assay, combination indices (CI) were determined using Calcusyn and CompuSyn software (Biosoft, Cambridge, UK). This is based on the established drugs combination method by Chou and Talalay[30],[31]. CI values indicate the type of drugs interaction in which CI < 0.9 indicates synergism, CI = 0.9–1.0 indicates additive and CI > 1.0 indicates antagonism. GraphPad Prism software was used to generate a three-color scale based on CI values obtained, where synergism is represented by green, additive by yellow, and antagonism by red in which the colors of each CI value were interpolated in between these constraints accordingly.
Background: Tetrazolium dyes change colour on reduction, which living cells bring about.

In another test the test system is A549 cells. Put plainly: Apoptosis annexin V-FITC assay. It is filed as cell-based, human. On the procedure:
Lung cancer cells were seeded in 6-well plate at 1 × 10^5 cells/well and allowed to adhere overnight. Cells were treated with Ru-PIP (25 µM), Olaparib (5 µM) or both. After 24 or 48 h incubations, cells were harvested, washed with 1X PBS twice and 500 µl of 1X binding buffer was added to the samples. After, the samples were incubated with 5 µl Annexin V-FITC (Invitrogen) for 20 min at RT. Prior to flow cytometric analysis, 5 µl of PI was added. Samples were acquired was analyzed using NovoCyte flow cytometer and NovoExpress software. For each sample, a minimum of 10,000 cells were counted and analyzed.

Each structure is given as a SMILES string.

By IC50 is commonly meant the concentration at which inhibition is half-maximal.

`[Ru+2].c1ccc(-c2nc3c4cccnc4c4ncccc4c3[nH]2)cc1.c1ccc2nc3c4cccnc4c4ncccc4c3nc2c1.c1ccc2nc3c4cccnc4c4ncccc4c3nc2c1` [Ru-PIP, [Ru(dppz)2(PIP)]^2+]: the half-inhibitory concentration (IC50) is 34.5 ± 10.5 µM in the test with A549 lung cancer cells (24 h), 19.4 ± 3.5 µM in the test on A549 lung cancer cells (48 h) and 11.4 ± 0.3 µM with A549 lung cancer cells (72 h). Also, the results for the “Selectivity Index (SI) = IC50 normal cells/IC50 cancer cells” value with A549 lung cancer cells (24 h), with A549 lung cancer cells (48 h) and with A549 lung cancer cells (72 h) were over 2.8, 4.6 and over 8.7, respectively. The “levels of apoptotic cells” value in the test with A549 cells (24 h, Ru-PIP 25 µM or Olaparib 5 µM) is listed as “comparable levels of apoptotic cells with untreated control”; in the test with A549 cells (48 h, Ru-PIP 25 µM alone or with Olaparib 5 µM), “increase in apoptotic cells was observed”.

Source of the values: paper PMC9879939, “Synergy of ruthenium metallo-intercalator, [Ru(dppz)2(PIP)]^2+, with PARP inhibitor Olaparib in non-small cell lung cancer cells” (Scientific Reports, 2023).
